“And” between values parts separate entries of the source, which are not always exact repeats. Equal entries are not always repeated.
How the values were obtained:
[1] = test system: p-tauSer396 in SH-SY5Y cells; assay: Okadaic acid-induced phosphorylation of tau protein (p-tauSer396) in SH-SY5Y cells (Western Blot); assay type: cell-based, human; conditions: for p-tauSer396 level (%): 24 h, then okadaic acid 40 nmol/L, SEM
Experimental: SH-SY5Y cells were cultured in vitro for 24 h in culture media containing different concentrations of compound 2. Then, the cells were treated with 40 nmol/L okadaic acid for 24 h. The p-tauSer396 level of the SH-SY5Y cells was measured by the Western Blot assay.

[2] = test system: PC12 cells; assay: Survival rate of PC12 cells in the okadaic acid-induced injury model (CCK-8); assay type: cell-based
Experimental: PC12 cells were detached and counted. A cell suspension was prepared at 8.0×10^4 cells/mL. 100 μL of the cell suspension was added to each well of a 96-well cell culture plate. The 96-well cell culture plate was placed in an incubator at 37° C. in 5% CO2 and cultured for 24 h. In an experimental group, the PC12 cells were pre-incubated for 2 h in a culture medium containing a test compound (the concentrations of the compound were 0.1 μmol/L, 0.5 μmol/L, 1 μmol/L, 5 μmol/L, and 10 μmol/L respectively, and the concentrations of the compound were set according to the concentrations in Table 5, Table 6, Table 7, and Table 8). […] In addition, a negative control group (no test compound or okadaic acid added) and a model group (only okadaic acid added) were set. The 96-well cell culture plate was placed in an incubator at 37° C. in 5% CO2 and cultured for 24 h. The cells in the 96-well cell culture plate were stained with 10 μL of CCK-8 in each well, and then cultured in the incubator for 1 h to 2 h. The 96-well cell culture plate was shaken gently for 10 min to mix uniformly and remove bubbles from the 96-well cell culture plate. The OD value of each well at 2=450 nm was read by using a microplate reader. A survival rate of cells was calculated.
Calculation formula for the cell survival rate: […]
The effect of each compound on the survival rate of PC12 cells in the okadaic acid- and Aβ1-42-induced injury models was determined by the CCK-8 cell proliferation assay.

[3] = test system: PP2A; assay: PP2A protein expression level in PC12 cells treated with Aβ (Western Blot); assay type: cell-based; conditions: then Aβ 40 μmol/L; for PP2A (Western Blot signal) / PP2A protein expression level, β-actin(%): 2 h, 24 h
Experimental: PC12 cells were cultured adherently. 0.1 μmol/L compound 2, 0.5 μmol/L compound 2, 1 μmol/L compound 2, 5 μmol/L compound 2, and 10 μmol/L compound 2 were added respectively. Then, the cells were incubated for 2 h. 40 μmol/L Aβ was then added. Then, the cells were incubated for 24 h. Total protein was extracted. PP2A activity was detected by the Western Blot assay.

[4] = test system: PP2A; assay: Okadaic acid-induced PP2A protein expression level in PC12 cells (Western Blot); assay type: cell-based; conditions: for PP2A (Western Blot signal) / PP2A(%): 2 h, then okadaic acid 40 nmol/L, 24 h
Experimental: PC12 cells were inoculated into a T25 culture flask. After the cells were attached to the wall, compound 1 and compound 2 were added, and then the cells were incubated for 2 h. 40 nmol/L okadaic acid was then added. Then, the cells were incubated for 24 h. The protein was extracted. Based on the Western Blot assay, the PP2A protein expression level in PC12 cells was detected through SDS-PAGE and transfer, immunoblotting, color development, and G: BOX chemiXR5 imaging.

[5] = test system: PC12 cells; assay: Survival rate of PC12 cells in the Aβ1-42-induced injury model (CCK-8); assay type: cell-based; conditions: for OD value at 450 nm, Mean ± SD: 2 h, then Aβ1-42 40 μmol/L, 24 h, PC12 cells
[6] = compound 0.1 μmol/L, PC12 cells
[7] = compound 0.5 μmol/L, PC12 cells

In the case of `COCc1cc2oc(=N)c3ccccc3n2n1` [Compound 2, 2-(methoxymethyl)-5H-benzo[d]pyrazolo[5,1-b][1,3]oxazin-5-imine], the “okadaic acid-induced phosphorylation of tau protein” value ([1]; compared with okadaic acid only) is reported as “can significantly inhibit okadaic acid-induced phosphorylation of tau protein in cells”, the “p-tauSer396 level (%)” value ([1]; compound 0.1 μmol/L, n = 3) is reported as 0.761 ± 0.008% and the “p-tauSer396 level (%)” value ([1]; compound 0.3 μmol/L, n = 3) is reported as 0.663 ± 0.027%. For the same compound, the “change of p-tauSer396 level” value ([1]; compound 1.0 μmol/L and 3.0 μmol/L) was “decreases significantly (P<0.05)”, the “p-tauSer396 level (%)” value ([1]; compound 1.0 μmol/L, n = 3, P<0.05 vs negative control) was 0.557 ± 0.013 % and the “p-tauSer396 level (%)” value ([1]; compound 3.0 μmol/L, n = 3, P<0.05 vs negative control) was 0.578 ± 0.025 %. The “change of p-tauSer396 level” value ([1]; compound 10 μmol/L) was “decreases significantly (P<0.01)”, the “p-tauSer396 level (%)” value ([1]; compound 10 μmol/L, n = 3, P<0.01 vs negative control) was 0.522 ± 0.016 % and the viability at 0.1 µM ([2]; Rattus norvegicus, PC-12, 24 h, compound 0.1 μmol/L, 2 h, then okadaic acid 50 nmol/L, 24 h, PC12 cells) was 49.2%. The viability at 0.5 µM ([2]; Rattus norvegicus, PC-12, 24 h, compound 0.5 μmol/L, 2 h, then okadaic acid 50 nmol/L, 24 h, PC12 cells) was 51%, the viability at 1 µM ([2]; Rattus norvegicus, PC-12, 24 h, compound 1 μmol/L, 2 h, then okadaic acid 50 nmol/L, 24 h, PC12 cells) was 59.4% and the viability at 5 µM ([2]; Rattus norvegicus, PC-12, 24 h, compound 5 μmol/L, 2 h, then okadaic acid 50 nmol/L, 24 h, PC12 cells) was 70.8%. For the same compound, the viability at 10 µM ([2]; Rattus norvegicus, PC-12, 24 h, compound 10 μmol/L, 2 h, then okadaic acid 50 nmol/L, 24 h, PC12 cells) was 78.4%, the “OD value at 450 nm, Mean ± SD” value ([2]; compound 0.1 μmol/L, 2 h, then okadaic acid 50 nmol/L, 24 h, PC12 cells) was 0.652 ± 0.018 and the “OD value at 450 nm, Mean ± SD” value ([2]; compound 0.5 μmol/L, 2 h, then okadaic acid 50 nmol/L, 24 h, PC12 cells) was 0.676 ± 0.016. The “OD value at 450 nm, Mean ± SD” value ([2]; compound 1 μmol/L, 2 h, then okadaic acid 50 nmol/L, 24 h, PC12 cells) was 0.787 ± 0.028, the “OD value at 450 nm, Mean ± SD” value ([2]; compound 5 μmol/L, 2 h, then okadaic acid 50 nmol/L, 24 h, PC12 cells) was 0.92 ± 0.008 and 0.967 ± 0.018 and the Survival rate % ([2]; compound 5 μmol/L, 2 h, then okadaic acid 50 nmol/L, 24 h, PC12 cells, 1440 min, 5 µM) was 72.93%. The “OD value at 450 nm, Mean ± SD” value ([2]; compound 10 μmol/L, 2 h, then okadaic acid 50 nmol/L, 24 h, PC12 cells) was 1.04 ± 0.017, the “survival rate compared with okadaic acid model group” value ([2]; compound 0.1 and 0.5 μmol/L) was “no statistical difference (P>0.05)” and the “survival rate compared with okadaic acid model group” value ([2]; compound 1, 5 and 10 μmol/L) was “significant statistical differences (P<0.01)”. For the same compound, the “PP2A (Western Blot signal)” value [3, 6] was 1025.7, the “PP2A protein expression level, β-actin(%)” value [3, 6] was 31.24% and the “PP2A (Western Blot signal)” value [3, 7] was 1129.7. The “PP2A protein expression level, β-actin(%)” value [3, 7] was 33.18%, the “PP2A (Western Blot signal)” value ([3]; compound 1 μmol/L, PC12 cells) was 1180.1 and the “PP2A protein expression level, β-actin(%)” value ([3]; compound 1 μmol/L, PC12 cells) was 33.51%. For the same compound, the “PP2A (Western Blot signal)” value ([3]; compound 5 μmol/L, PC12 cells) was 1284.7, the “PP2A protein expression level, β-actin(%)” value ([3]; compound 5 μmol/L, PC12 cells) was 35.61% and the “PP2A (Western Blot signal)” value ([3]; compound 10 μmol/L, PC12 cells) was 2192.1. For the same compound, the “PP2A protein expression level, β-actin(%)” value ([3]; compound 10 μmol/L, PC12 cells (normal cells 58.95%)) was 58.59%, the “effect on PP2A protein expression level” value ([3]; compound 10 μmol/L, PC12 cells) was “can significantly increase the PP2A protein expression level” and the “effect on PP2A protein expression level” value ([3]; compound 0.1, 0.5, 1 and 5 μmol/L, PC12 cells) was “can increase the PP2A protein expression level in PC12 cells that is reduced due to Aβ, in a specific dose-effect relationship”. The “PP2A (Western Blot signal)” value ([4]; compound 1 μmol/L) was 557.1, the “PP2A(%)” value ([4]; compound 1 μmol/L) was 14% and the “PP2A (Western Blot signal)” value ([4]; compound 5 μmol/L) was 688.01. The “PP2A(%)” value ([4]; compound 5 μmol/L) was 18%, the “PP2A (Western Blot signal)” value ([4]; compound 10 μmol/L) was 1130.4 and the “PP2A(%)” value ([4]; compound 10 μmol/L) was 29%. For the same compound, the “effect on the PP2A expression level” value ([4]; compound 1, 5 and 10 μmol/L, compared with okadaic acid only) was “can significantly increase the PP2A expression level dose-dependently”, the viability at 0.1 µM ([5]; Rattus norvegicus, PC-12, 24 h) was 50.7% and the viability at 0.5 µM ([5]; Rattus norvegicus, PC-12, 24 h) was 50.6%. For the same compound, the viability at 1 µM ([5]; Rattus norvegicus, PC-12, 24 h) was 55.7%, the viability at 5 µM ([5]; Rattus norvegicus, PC-12, 24 h) was 68.3% and the viability at 10 µM ([5]; Rattus norvegicus, PC-12, 24 h) was 79.1%. The “OD value at 450 nm, Mean ± SD” value ([5]; compound 0.1 μmol/L) was 0.699 ± 0.027, the “OD value at 450 nm, Mean ± SD” value ([5]; compound 0.5 μmol/L) was 0.698 ± 0.024 and the “OD value at 450 nm, Mean ± SD” value ([5]; compound 1 μmol/L) was 0.768 ± 0.015. For the same compound, the “OD value at 450 nm, Mean ± SD” value ([5]; compound 5 μmol/L) was 0.941 ± 0.018, the “OD value at 450 nm, Mean ± SD” value ([5]; compound 10 μmol/L) was 1.09 ± 0.026 and the “survival rate compared with Aβ1-42 model group” value ([5]; compound 0.1 and 0.5 μmol/L) was “no statistical difference (P>0.05)”. The “survival rate compared with Aβ1-42 model group” value ([5]; compound 1, 5 and 10 μmol/L) was “statistical differences (P<0.01)”.

— patent US20260335329A1, “PROTEIN PHOSPHATASE AGONIST AND USE” (priority 2022, published 2026)
